Here are results for 14 molecules from ChEMBL document CHEMBL1201862, “PubChem BioAssay data set” (2004).

Test systems include UACC-62; Malme-3M; IGROV-1; HCT-15; NCI-H226; HCC 2998; SK-OV-3; SNB-19; LXFL 529; SW-620; SR; UO-31; M14; RPMI-8226; TK-10; COLO 205.
Holding throughout (test): NCI-60 cell line screen, 48 h

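Cells were grown in 96-well plates and exposed to each compound for 48 hours at five concentrations; endpoints were interpolated linearly between bracketing concentrations, or set to the highest concentration if not reached. GI50 is the concentration that inhibits growth by half.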 Active and inactive are the calls of the source. Cut-off read from the data, not from the text of the source: active = GI50 up to about 1.1 µM and inactive = higher. Where only a bound is given, the exact number is not on record here.

In the case of `COC(=O)CCC(NC(=S)N/N=C(\C)c1cnc2ccccc2n1)C(=O)OC` (stereo unspecified), the GI50 in the assay with UACC-62 was 16.9 µM (inactive); with Malme-3M, 41.3 µM (inactive); with IGROV-1, 35.4 µM (inactive); with HCT-15 it was 35.1 µM; in the assay with NCI-H226, 41.8 µM (inactive); with HCC 2998, 32.1 µM (inactive). Further, the GI50 in the assay on SK-OV-3 was 76.9 µM (inactive); in the assay on SNB-19, > 100 µM (inactive); in the assay with LXFL 529, 29.9 µM (inactive); with SW-620, 20.8 µM (inactive); in the assay on SR, 15.1 µM (inactive); with UO-31, 27.4 µM (inactive). The GI50 was 30.8 µM (inactive) in the assay with M14, 11.1 µM (inactive) with RPMI-8226, > 100 µM (inactive) in the assay with TK-10 and 2.55 µM (inactive) in the assay on COLO 205.

As to `Cc1ccc(Oc2ccc(C)cc2N)cc1`, the GI50 in the assay with UACC-62 is > 100 µM (inactive); in the assay on Malme-3M it was > 100 µM (inactive); in the assay on IGROV-1, > 100 µM (inactive); in the assay on HCT-15, 48.5 µM; with NCI-H226 it was 48.6 µM (inactive); in the assay on HCC 2998, > 100 µM (inactive). Also, the GI50 in the assay on SK-OV-3 was > 100 µM (inactive); with SNB-19 it was > 100 µM (inactive); in the assay on LXFL 529 it was > 100 µM (inactive); in the assay with SW-620, > 100 µM (inactive); in the assay with SR, 57.9 µM (inactive); in the assay on UO-31, 34.8 µM (inactive). Besides, the GI50 is > 100 µM (inactive) in the assay on M14, 97.9 µM (inactive) with RPMI-8226, > 100 µM (inactive) in the assay on TK-10 and > 100 µM (inactive) with COLO 205.

Turning to `COc1ccc(C(=O)Cc2c(C(=O)c3ccccc3)c3ccccc3n2C(=O)c2ccccc2)cc1`, the GI50 was 94 µM (inactive) in the assay with UACC-62; > 100 µM (inactive) with Malme-3M; > 100 µM (inactive) in the assay with IGROV-1; 46 µM in the assay on HCT-15; > 100 µM (inactive) in the assay on NCI-H226; > 100 µM (inactive) with HCC 2998. Also, the GI50 in the assay with SNB-19 was 92 µM (inactive); in the assay with LXFL 529 it was 67.6 µM (inactive); with SW-620 it was 29.8 µM (inactive); in the assay with SR, 23.8 µM (inactive); with UO-31 it was 32.9 µM (inactive); in the assay on M14, > 100 µM (inactive). Also, the GI50 is 11.9 µM (inactive) in the assay with RPMI-8226, > 100 µM (inactive) with TK-10 and > 100 µM (inactive) with COLO 205.

As for `BrC1(Br)C2/C=C\CCCCC21` (stereo unspecified), the GI50 in the assay on Malme-3M, in the assay with IGROV-1, in the assay on NCI-H226, in the assay on HCC 2998, in the assay on SNB-19 and in the assay with LXFL 529 was > 100 µM (inactive) in each case. Further, the GI50 in the assay with SW-620, with SR, with TK-10 and in the assay with COLO 205 was > 100 µM (inactive) each time.

On to `O=C(Cc1ccccc1)N/N=C(\C1=Nc2ccc([N+](=O)[O-])cc2NC1O)C(O)c1ccc([N+](=O)[O-])cc1` (stereo unspecified), for which the GI50 is 54 µM (inactive) with UACC-62; > 100 µM (inactive) in the assay with Malme-3M; > 100 µM (inactive) in the assay on IGROV-1; greater than 100 µM with HCT-15; > 100 µM (inactive) in the assay on NCI-H226; 99.5 µM (inactive) in the assay with HCC 2998. Moreover, the GI50 with SK-OV-3 is > 100 µM (inactive); with SNB-19, > 100 µM (inactive); with LXFL 529 it was 42.6 µM (inactive); in the assay with SW-620, 80 µM (inactive); in the assay with SR, > 100 µM (inactive); in the assay on UO-31, 52.8 µM (inactive). In addition, the GI50 in the assay on M14 was 30.8 µM (inactive); in the assay with RPMI-8226 it was 44.4 µM (inactive); in the assay with TK-10 it was > 100 µM (inactive); in the assay with COLO 205 it was 64.1 µM (inactive).

In the case of `COC(=O)C(=O)C(C(C)=O)C(=O)NCc1ccccc1` (stereo unspecified), the GI50 with UACC-62 was > 100 µM (inactive); in the assay with Malme-3M, > 100 µM (inactive); in the assay with IGROV-1 it was > 100 µM (inactive); in the assay on HCT-15 it was greater than 100 µM; in the assay with NCI-H226, > 100 µM (inactive); with HCC 2998 it was > 100 µM (inactive). Besides, the GI50 was > 100 µM (inactive) in the assay with SNB-19; > 100 µM (inactive) in the assay on LXFL 529; 5.06 µM (inactive) in the assay on SW-620; > 100 µM (inactive) in the assay with SR; > 100 µM (inactive) with UO-31; > 100 µM (inactive) in the assay on M14. In addition, the GI50 in the assay with RPMI-8226, in the assay on TK-10 and in the assay with COLO 205 was > 100 µM (inactive) in each case.

With `Cc1cc(N(CCC#N)CCC#N)ccc1/C=C1N=C(/C=C/c2ccccc2)N(c2ccc(S(N)(=O)=O)cc2)C\1=O`, the GI50 was > 100 µM (inactive) in the assay on UACC-62; > 100 µM (inactive) in the assay on Malme-3M; > 100 µM (inactive) in the assay with IGROV-1; greater than 100 µM in the assay with HCT-15; > 100 µM (inactive) in the assay with NCI-H226; > 100 µM (inactive) in the assay on SK-OV-3. The GI50 with SNB-19, in the assay with LXFL 529, with SW-620, in the assay with SR, in the assay on UO-31 and in the assay with M14 was > 100 µM (inactive) each time. Besides, the results for the GI50 in the assay on RPMI-8226, with TK-10 and with COLO 205 were 34.3 µM (inactive), > 100 µM (inactive) and > 100 µM (inactive), respectively.

On to `COc1ccc2oc3c4c2c1CCC4CCC3=O` (stereo unspecified), for which the GI50 with UACC-62, with Malme-3M, in the assay on IGROV-1, in the assay on HCC 2998, with SK-OV-3 and in the assay on SNB-19 was > 100 µM (inactive) in each case. Further, the GI50 in the assay on LXFL 529 is > 100 µM (inactive); in the assay on SW-620, > 100 µM (inactive); with SR, > 100 µM (inactive); in the assay with UO-31, 25.2 µM (inactive); in the assay with M14 it was > 100 µM (inactive); with RPMI-8226, > 100 µM (inactive). The GI50 in the assay with TK-10 was 5.47 µM (inactive); with COLO 205, > 100 µM (inactive).

`CC1C2=CC=C(O2)C(C)(C)C2=CC=C(O2)C(C)(C)C2=CC=C(O2)C(C)(C)C2=CC=C1O2`: the GI50 was > 100 µM (inactive) in the assay on Malme-3M; > 100 µM (inactive) in the assay with IGROV-1; greater than 100 µM in the assay on HCT-15; > 100 µM (inactive) in the assay on NCI-H226; > 100 µM (inactive) in the assay with HCC 2998; > 100 µM (inactive) in the assay with SK-OV-3. Further, the GI50 in the assay with SNB-19, in the assay with LXFL 529, in the assay with SW-620, in the assay with SR, in the assay on TK-10 and in the assay with COLO 205 was > 100 µM (inactive) each time.

Consider `O=[N+]([O-])c1cccc(C2=NOC3C4CCC(C4)C23)c1` (stereo unspecified), for which the GI50 with Malme-3M is > 100 µM (inactive); in the assay with IGROV-1, > 100 µM (inactive); in the assay on HCT-15 it was greater than 100 µM; in the assay with NCI-H226 it was > 100 µM (inactive); with HCC 2998, > 100 µM (inactive); in the assay on SK-OV-3 it was > 100 µM (inactive). Moreover, the GI50 is > 100 µM (inactive) in the assay with LXFL 529; 22.3 µM (inactive) in the assay on SW-620; > 100 µM (inactive) in the assay on SR; > 100 µM (inactive) in the assay on UO-31; > 100 µM (inactive) with M14; > 100 µM (inactive) in the assay on RPMI-8226. In addition, the GI50 with TK-10 and with COLO 205 was > 100 µM (inactive) throughout.

As to `CC1=NN(c2ccccc2)C(=O)C1=C1SCCS1`, the GI50 in the assay on UACC-62 is > 62.2 µM (inactive); with Malme-3M, > 67.6 µM (inactive); in the assay on IGROV-1, 82.4 µM (inactive); with HCT-15 it was 40.9 µM; in the assay on NCI-H226, > 64 µM (inactive); in the assay with HCC 2998, > 87.1 µM (inactive). Besides, the GI50 is > 100 µM (inactive) in the assay with SK-OV-3; > 86.7 µM (inactive) in the assay on SNB-19; > 67.9 µM (inactive) in the assay with LXFL 529; > 38.3 µM (inactive) in the assay with SW-620; 37.9 µM (inactive) in the assay on UO-31; > 79.4 µM (inactive) in the assay on M14. Further, the GI50 with RPMI-8226 is > 25.8 µM (inactive); in the assay on TK-10 it was > 55.1 µM (inactive); with COLO 205 it was 25.1 µM (inactive).

For the molecule `Oc1cc(-c2ccccn2)nc2cccc(F)c12`, the GI50 with UACC-62 is 95.3 µM (inactive); in the assay with IGROV-1 it was > 100 µM (inactive); in the assay on NCI-H226, > 100 µM (inactive); in the assay on HCC 2998 it was 0.641 µM (active); in the assay on SK-OV-3, > 100 µM (inactive); in the assay on SNB-19 it was > 100 µM (inactive). Besides, the GI50 is 74.1 µM (inactive) in the assay with LXFL 529; > 100 µM (inactive) with SW-620; > 100 µM (inactive) with SR; > 100 µM (inactive) in the assay on UO-31; > 100 µM (inactive) in the assay on M14; > 100 µM (inactive) in the assay with RPMI-8226. In addition, the GI50 in the assay on TK-10 and with COLO 205 was > 100 µM (inactive) in each case.

On to `CCC1CN2CCc3c([nH]c4ccccc34)C2C[C@@H]1CC(=O)N(C)C` (stereo partly specified), for which the GI50 with Malme-3M is > 100 µM (inactive); with IGROV-1 it was > 100 µM (inactive); with HCT-15 it was greater than 100 µM; in the assay with NCI-H226, > 100 µM (inactive); in the assay with HCC 2998, > 100 µM (inactive); in the assay with SK-OV-3, 39.6 µM (inactive). Further, the GI50 in the assay with SNB-19 is > 100 µM (inactive); with LXFL 529, > 100 µM (inactive); with SW-620, > 100 µM (inactive); in the assay on SR, 78.7 µM (inactive); with UO-31, > 100 µM (inactive); in the assay with M14 it was > 100 µM (inactive). Moreover, the GI50 with TK-10 and with COLO 205 was > 100 µM (inactive) in each case.

For `CCCN1CC=CCC1`, the GI50 in the assay on UACC-62 was > 100 µM (inactive); in the assay with Malme-3M, > 100 µM (inactive); with IGROV-1 it was > 100 µM (inactive); with HCT-15, greater than 100 µM; in the assay with HCC 2998, > 100 µM (inactive); in the assay on SK-OV-3 it was > 100 µM (inactive). In addition, the GI50 in the assay on SNB-19, in the assay on LXFL 529, in the assay with SW-620, with SR, with UO-31 and in the assay on M14 was > 100 µM (inactive) throughout. In addition, the GI50 in the assay on RPMI-8226, with TK-10 and with COLO 205 was > 100 µM (inactive) throughout.
